Literature values as cited in patent publication US12527803B2, “Testosterone dodecanoate compositions and methods” (priority 2023, dated 2026).

What was measured:
[1] = system: normotensive and hypertensive rats
[2] = system: Candida albicans, Aspergillus niger, and Fusarium spp
[3] = system: Enterhemorrhagic E. Coli (EHEC) biofilms; details: p<0.001 for lauric acid
[4] = system: prostatic hyperplasia induced by testosterone; details: rats
[5] = system: Vesicular stomatitis virus, Herpes simplex virus, Visna virus, Respiratory syncytial virus, and Junin virus
[6] = system: Propionibacterium acnes, Staphylococcus aureus, Eschericia coli, Streptococci, Mycobacterium tuberculosis, Clostridium difficile and other bacteria

SMILES | Effect on BP and heart rate ([1]; normotensive and hypertensive rats) | Effect on HDL levels ([1]; rat, in vivo) | Antifungal benefit [2] | Repression of EHEC biofilms versus control [3] | Effect on prostatic hyperplasia induced by testosterone [4] | Antiviral benefit [5] | Antibacterial benefit [6]
CCCCCCCCCCCC(=O)O [lauric acid] | reduce the BP and heart rate | increase HDL levels | antifungal benefit | repressed EHEC biofilms significantly differently than the control | prevent the prostatic hyperplasia induced by testosterone | antiviral benefit | antibacterial benefit
CCCCCCCCCCC(=O)O [undecanoic acid] | – | – | – | did not | – | – | –
